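Cells were grown in 96-well plates and exposed to each compound for 48 hours at five concentrations; endpoints were interpolated linearly between bracketing concentrations, or set to the highest concentration if not reached. At the GI50, growth is halved. The concentration for full growth arrest is given as TGI.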
Legend:
Test in all cases: NCI-60 cell line screen, 48 h
[1] = test system: 786-0 renal
[2] = test system: A498 renal
[3] = test system: A549 NSCLC
[4] = test system: CAKI-1 renal
[5] = test system: M14 melanoma
[6] = test system: OVCAR-4 ovarian
[7] = test system: RXF 393 renal
[8] = test system: SF-295 CNS
[9] = test system: SK-MEL-5 melanoma
[10] = test system: SNB-19 CNS

Compound	TGI [1] [µM]	TGI [2] [µM]	TGI [3] [µM]	TGI [4] [µM]	TGI [5] [µM]	TGI [6] [µM]	TGI [7] [µM]	TGI [8] [µM]	TGI [9] [µM]	TGI [10] [µM]	GI50 [1] [µM]	GI50 [2] [µM]	GI50 [3] [µM]	GI50 [4] [µM]	GI50 [5] [µM]	GI50 [6] [µM]	GI50 [7] [µM]	GI50 [8] [µM]	GI50 [9] [µM]	GI50 [10] [µM]
CC(=O)OCC1OC(n2cnc3c(I)nc(I)nc32)C(OC(C)=O)C1OC(C)=O (stereo not drawn)	27.8	38.3	32.7	4.09	31.6	17.4	38.3	35.1	26.1	25	–	–	–	–	–	–	–	–	–	–
CC(=O)C(CN1CCOCC1)C(c1ccccc1)c1c(O)c2ccccc2oc1=O (stereo not drawn)	> 100	> 100	> 100	> 100	> 100	> 100	> 100	> 100	> 100	> 100	–	–	–	–	–	–	–	–	–	–
COC(=O)C1(c2ccc(OC)cc2)NC(c2ccccc2)C2C(=O)N(c3ccc(OC)cc3)C(=O)C21 (stereo not drawn)	> 100	> 100	> 100	> 100	> 100	> 100	> 100	> 100	> 100	> 100	–	–	–	–	–	–	–	–	–	–
Cn1cc(-c2nonc2-c2cn(C)c3ccc(Br)cc23)c2ccccc21	> 100	> 100	> 100	> 100	> 100	> 100	5.46	> 100	> 100	> 100	6.18	3.38	5.29	4.33	3.93	5.95	1.99	2.89	3.37	5.33
Cn1cccc1C1CC(=O)N(CCC[Se]C#N)C1=O (stereo not drawn)	3.44	2.78	5.17	3.57	3.89	14	3.43	3.29	4.05	3.08	1.95	1.3	2.07	1.92	1.56	2.35	1.74	1.81	1.96	1.62
S=c1nc(/C=C/c2ccc(Cl)c(Cl)c2)[nH][nH]1	> 100	> 100	> 100	> 100	> 100	> 100	> 100	> 100	> 100	> 100	–	–	–	70	94.7	65.5	–	–	–	–
CNS(=O)(=O)NN(C)S(=O)(=O)c1ccc(C)cc1	> 100	> 100	> 100	> 100	> 100	> 100	> 100	> 100	> 100	> 100	–	–	–	–	–	–	–	–	–	–
C[CH2][Sn]([CH2]C)([O]C(=O)c1cc(OC)c(OC)c(OC)c1)[O][Sn]([CH2]C)([CH2]C)[O]C(=O)c1cc(OC)c(OC)c(OC)c1	> 59.8	43.9	> 100	29.8	> 78.9	> 100	27.9	> 100	> 100	> 100	27.4	25.6	> 100	15.7	32.5	> 100	12.4	76.5	74.4	> 75.1
CC1(C)CC[C@]2(C(=O)O)CCC3(C)C(=CCC4[C@@]5(C)CC[C@H](OC6OCC(O)C(O)C6OC6OC(CO)C(O)C(O)C6O)C(C)(C)C5CC[C@]43C)C2C1 (stereo partly drawn)	4.02	4.09	3.53	3.06	3.45	3.05	3.53	3.42	11.4	3.7	–	–	–	–	–	–	–	–	–	–
C#CCSc1nnnn1-c1ccc(Br)c(C)c1	> 100	81.1	> 100	17.6	> 100	> 100	> 100	> 100	33.9	> 100	54.9	18.9	38	2.82	31.1	31.1	27.3	29.5	16.5	74
CCN1CCC(O)(c2ccccc2)C(C(=O)c2ccccc2)C1 (stereo not drawn)	31	> 100	> 100	19.3	34.4	32.8	29.7	> 100	> 100	> 100	–	–	–	–	–	–	–	–	–	–
O=C(/C=C/c1cccnc1)/C=C/c1cccnc1	6.03	4.66	6.23	26.6	4.62	4.52	1.53	13.1	4.7	11.6	2.1	1.94	2.32	4.28	1.84	2	0.608	3.73	2.06	3.64
COc1ccc(Br)c(CCCCC(=O)O)c1	> 100	> 100	> 100	> 100	> 100	> 100	> 100	> 100	> 100	> 100	–	–	–	–	–	–	–	–	–	–
O=C1/C(=C\c2ccccc2)CN(C(=O)c2ccccc2F)C/C1=C\c1ccccc1	3.56	13.2	12	12.8	7.12	11.2	3.41	5.77	3.23	4.15	1.85	2.63	3.2	3.4	2.51	3.04	1.8	2.24	1.7	1.85
COc1ccccc1NS(=O)(=O)c1cc(C(C)(C)C)ccc1OCCOc1ccc(C(C)(C)C)cc1S(=O)(=O)Nc1ccccc1OC	> 100	> 100	> 100	> 100	> 100	> 100	> 100	> 100	> 100	> 100	–	–	–	–	–	–	–	–	–	–
COc1cc2nc(-c3ccc(Cl)cc3)cc(OCCCN3CCC(O)CC3)c2cc1OC	14.9	3.83	14.8	5.24	2.21	> 100	4.07	3.58	2.56	16.9	3.31	1.53	2.2	0.416	0.591	4.34	1.22	1.66	1.27	3.19
CC(=O)NNc1nc(C)c(C(/C=C/c2ccc3c(c2)OCO3)=N/NC(=O)c2ccncc2)s1	> 100	> 100	> 100	> 100	> 100	> 100	> 100	> 100	> 100	> 100	–	–	–	–	–	–	–	–	–	–
COC(=O)Oc1nn(C(=O)OC)c(=O)c2ccccc12 (tested in a mixture with another compound)	> 100	99.4	> 100	> 100	> 100	> 100	> 100	> 100	> 100	> 100	–	–	–	–	–	–	–	–	–	–
CC1OC(OC2C(OC3CCC4(C)C(CCC5(C)C4CC=C4C6CC(C)(C)CCC6(CO)C(O)CC45C)C3(C)C)OC(C(=O)O)C(OC3OC(COC4OC(CO)C(O)C(O)C4O)C(O)C(O)C3O)C2O)C(O)C(O)C1O (stereo not drawn)	3.01	23.9	28.1	22.1	9.24	12.8	19.8	20.2	22.2	28	1.15	13.2	12.2	10.6	2.5	3.1	8.94	8.13	11.5	13.9
COc1cc(-c2cn(-c3ccc(Cl)cc3)c(=O)n2-c2ccccc2)cc(OC)c1OC	> 100	> 92.4	> 100	> 100	> 100	> 90.7	> 81.9	> 100	> 100	> 100	> 83.1	18.7	> 46.6	> 100	> 100	21.4	25.4	55.7	25.3	44.7
CC1=C(C(=O)Nc2cc(F)c(F)cc2F)C(c2cccc([N+](=O)[O-])c2)C(C(=O)Nc2ccccc2C(F)(F)F)=C(C)N1 (stereo not drawn)	40.3	45	> 100	49.6	55.5	66.1	46.2	48.8	63.9	> 100	–	–	–	–	–	–	–	–	–	–

Reference: PubChem BioAssay (NCI)
